Data published in patent publication US11180504B2 (ORCHID PHARMA LTD., priority 2016, dated 2021).
Converted amounts (≈) assume the structure as drawn.

What was measured:
[1] = tested on: carbapenemase producing K. pneumoniae; test: MIC by broth micro-dilution (CLSI), carbapenemase producing K. pneumoniae; format: cell-based, Klebsiella pneumoniae; conditions: Klebsiella pneumoniae, ATCCBAA1705, KPC-2 K. pneumoniae ATCC BAA-1705; read-out: MIC
[2] = tested on: methicillin-sensitive Staphylococcus aureus; test: MIC by broth micro-dilution (CLSI), methicillin-sensitive S. aureus; format: cell-based; conditions: Staphylococcus aureus, ATCC 29213 / MSSA, MSSA S. aureus ATCC29213; read-out: MIC
[3] = tested on: carbapenem sensitive Escherichia coli; test: MIC by broth micro-dilution (CLSI), carbapenem sensitive E. coli; format: cell-based; conditions: Escherichia coli, ATCC25922, ESBL −ve E. coli ATCC25922; read-out: MIC
[4] = tested on: carbapenem sensitive Pseudomonas aeruginosa; test: MIC by broth micro-dilution (CLSI), carbapenem sensitive P. aeruginosa; format: cell-based; conditions: Pseudomonas aeruginosa, ATCC27853, Meropenem susceptible P. aeruginosa ATCC27853; read-out: MIC

| SMILES | MIC [1] [µg/mL] | MIC [2] [µg/mL] | MIC [3] [µg/mL] | MIC [4] [µg/mL] |
| --- | --- | --- | --- | --- |
| C[C@@H](NC(=O)Cn1cnnn1)[C@H]1C(=O)N2C(C(=O)O)=C(S[C@@H]3CN[C@H](C(=O)N4CCC[C@H](N)C4)C3)[C@H](C)[C@H]12 [Example 341, (4R,5S,6R)-6-((R) - 1-(2-(1H-tetrazol-1-yl)acetamido)ethyl)-3-((3S,5S)-5-((S)-3-aminopiperidin-1-carbonyl)pyrrolidin-3-ylthio)-4-methyl-7-oxo-1-azabicycio[3.2.0]hept-2-ene-2-carboxylic acid] | 4 (≈ 7.3 µM) | 4 (≈ 7.3 µM) | 1 (≈ 1.83 µM) | 8 (≈ 14.6 µM) |
| C[C@@H](NC(=O)Cn1cnnn1)[C@H]1C(=O)N2C(C(=O)O)=C(S[C@@H]3CN[C@H](C(=O)N4CCC(N5CC(N)C5)CC4)C3)[C@H](C)[C@H]12 [Example 342, (4R,5S,6R)-6-((R) - 1-(2-(1H-tetrazol-1-yl)acetamido)ethyl)-3-((3S,5S)-5-(4-(3-aminoazetidin-1-yl)piperidine-1-carbonyl)pyrrolidin-3-ylthino)-4-methyl-7-oxo-1-azabicyclo[3.2.0]hept-2-ene-2-carboxylic acid] | 8 (≈ 13.3 µM) | 16 (≈ 26.5 µM) | 2 (≈ 3.32 µM) | 8 (≈ 13.3 µM) |
| C[C@@H](NC(=O)Cn1cnnn1)[C@H]1C(=O)N2C(C(=O)O)=C(S[C@@H]3CN[C@H](C(=O)N4CCC(N5CC(CN)C5)CC4)C3)[C@H](C)[C@H]12 [Example 343, (4R,5S,6R)-6-((R) - 1-(2-(1H-tetrazol-1-yl)acetamido)ethyl)-3-((3S,5S)-5-(4-(3-(aminomethyl)azetidin-1-yl)piperidine-1-carbonyl)pyrrolidin-3-ylthio)-4-methyl-7-oxo-1-azabicycio[3.2.0]hept-2-ene-2-carboxylic acid] | 8 (≈ 13 µM) | 16 (≈ 25.9 µM) | 2 (≈ 3.24 µM) | 8 (≈ 13 µM) |
| C[C@@H](NC(=O)Cn1cnnn1)[C@H]1C(=O)N2C(C(=O)O)=C(S[C@@H]3CN[C@H](C(=O)N4CC(F)(CN)C4)C3)[C@H](C)[C@H]12 [Example 344, (4R,5S,6R)-6-((R) - 1-(2-(1H-tetrazol-1-yl)acetamido)ethyl)-3-((3S,5S)-5-(3-(aminomethyl)-3-fluoroazetidine-1-carbonyl)pyrrolidin-3-ylthio)-4-methyl-7-oxo-1-azabicyclo[3.2.0]hept-2-ene-2-carboxylic acid] | 16 (≈ 29 µM) | 16 (≈ 29 µM) | 1 (≈ 1.81 µM) | 16 (≈ 29 µM) |
| C[C@@H](NC(=O)Cn1cnnn1)[C@H]1C(=O)N2C(C(=O)O)=C(S[C@@H]3CN[C@H](C(=O)N4C[C@H]5CC[C@@H](C4)[C@H]5N)C3)[C@H](C)[C@H]12 [Example 345, (4R,5S,6R)-6-((R) - 1-(2-(1H-tetrazol-1-yl)acetamido)ethyl)-3-((3S,5S)-5-((1R,5S,8S)-8-amino-3-azabicyclo[3.2.0]octane-3-carbonyl)pyrrolidin-3-ylthio)-4-methyl-7-oxo-1-azabicyclo[3.2.0]hept-2-ene-2-carboxylic acid] | 32 (≈ 55.8 µM) | 64 (≈ 112 µM) | 8 (≈ 13.9 µM) | 128 (≈ 223 µM) |
| C[C@@H](NC(=O)Cn1cnnn1)[C@H]1C(=O)N2C(C(=O)O)=C(S[C@@H]3CN[C@H](C(=O)N4CCC5(CCCN5)CC4)C3)[C@H](C)[C@H]12 [Example 352, (4R,5S,6R)-3-((3S,5S)-5-(1,8-diazaspiro[4.5]decane-8-carbonyl)pyrrolidin-3-ylthio)-6-((R)-1-(2-(1H-tetrazol-1-yl)acetamido)ethyl)-4-methyl-7-oxo-1-azabicyclo[3.2.0]hept-2-ene-2-carboxylic acid] | 2 (≈ 3.4 µM) | 4 (≈ 6.81 µM) | 0.25 (≈ 0.425 µM) | 2 (≈ 3.4 µM) |
| C[C@@H](NC(=O)Cn1cnnn1)[C@H]1C(=O)N2C(C(=O)O)=C(S[C@@H]3CNC(CNC(=O)[C@H]4CSCN4)C3)[C@H](C)[C@H]12 (some centres unmarked) [Example 354] | 1 (≈ 1.77 µM) | 2 (≈ 3.54 µM) | 0.125 (≈ 0.221 µM) | 32 (≈ 56.6 µM) |
| C[C@@H](NC(=O)Cn1nnnc1C(C)(C)C)[C@H]1C(=O)N2C(C(=O)O)=C(S[C@@H]3CN[C@H](C(=O)N4CC[C@@H](N)C4)C3)[C@H](C)[C@H]12 [Example 355, (4R,5S,6R)-3-((3S,5S)-5-((R)-3-aminopyrrolidine-1-carbonyl)pyrrolidin-3-ylthio)-6-((R)-1-(2-(5-tert-hutyl-1H-tetrazol-1-yl)acetamido)ethyl)-4-methyl-7-oxo-1-azabicyclo[3.2.0]hept-2-ene-2-carboxylic acid] | 16 (≈ 27.1 µM) | 4 (≈ 6.78 µM) | 1 (≈ 1.7 µM) | 128 (≈ 217 µM) |
| C[C@@H](NC(=O)Cn1nnnc1-c1cccs1)[C@H]1C(=O)N2C(C(=O)O)=C(S[C@@H]3CN[C@H](C(=O)N(C)C)C3)[C@H](C)[C@H]12 [Example 357, (4R,5S,6R)-3-((3S,5S)-5-(dimethylcarbamoyl)pyrrolidin-3-ylthio)-4-methyl-7-oxo-6-((R)-1-(2-(5-(thiophen-2-yl)-1H-tetrazol-1-yl)acetamido)ethyl)-1-azabicyclo[3.2.0]hept-2-ene-2-carboxylic acid] | 32 (≈ 55.7 µM) | 2 (≈ 3.48 µM) | 1 (≈ 1.74 µM) | > 128 |

More lines, in order of falling MIC [1], values ahead:

| MIC [1] [µg/mL] | MIC [2] [µg/mL] | MIC [3] [µg/mL] | MIC [4] [µg/mL] | SMILES |
| --- | --- | --- | --- | --- |
| 16 (≈ 26.6 µM) | 4 (≈ 6.65 µM) | 0.5 (≈ 0.831 µM) | > 128 | C[C@@H](NC(=O)Cn1nnnc1C(F)(F)F)[C@H]1C(=O)N2C(C(=O)O)=C(S[C@@H]3CN[C@H](C(=O)N4CC[C@@H](N)C4)C3)[C@H](C)[C@H]12 [Example 347, (4R,5S,6R)-3-((3S,5S)-5-((R)-3-aminopyrrolidine-1-carbonyl)pyrrolidin-3-ylthio)-4-methyl-7-oxo-6-((R)-1-(2-(5-(trifluoromethyl)-1H-tetrazol-1-yl)acetamido)ethyl)-1-azabicyclo[3.2.0]hept-2-ene-2-carboxylic acid] |
| 16 (≈ 28.5 µM) | 8 (≈ 14.3 µM) | 1 (≈ 1.78 µM) | > 128 | C[C@@H](NC(=O)Cn1nnnc1C(F)(F)F)[C@H]1C(=O)N2C(C(=O)O)=C(S[C@@H]3CN[C@H](C(=O)N(C)C)C3)[C@H](C)[C@H]12 [Example 348, (4R,5S,6R)-3-((3S,5S)-5-(dimethylcarbamoyl)pyrrolidin-3-ylthio)-4-methyl-7-oxo-6-((R)-1-(2-(5-(trifluoromethyl)-1H-tetrazol-1-yl)acetamido)ethyl)-1-azabicyclo[3.2.0]hept-2-ene-2-carboxylic acid] |
| 16 (≈ 29.2 µM) | 4 (≈ 7.29 µM) | 1 (≈ 1.82 µM) | > 128 | C[C@@H](NC(=O)Cn1nnnc1C(C)(C)C)[C@H]1C(=O)N2C(C(=O)O)=C(S[C@@H]3CN[C@H](C(=O)N(C)C)C3)[C@H](C)[C@H]12 [Example 356, (4R,5S,6R)-6-((R)-1-(2-(5-tert-butyl-1H-tetrazol-1-yl)acetamido)ethyl)-3-((3S,5S)-5-(dimethylcarbamoyl)pyrrolidin-3-ylthio)-4-methyl-7-oxo-1-azabicyclo[3.2.0]hept-2-ene-2-carboxylic acid] |
| 8 (≈ 13.8 µM) | 16 (≈ 27.6 µM) | 1 (≈ 1.73 µM) | 16 (≈ 27.6 µM) | C[C@@H](NC(=O)Cn1cnnn1)[C@H]1C(=O)N2C(C(=O)O)=C(S[C@@H]3CN[C@H](C(=O)N4CCC(F)(CN)CC4)C3)[C@H](C)[C@H]12 [Example 346, (4R,5S,6R)-6-((R) - 1-(2-(1H-tetrazol-1-yl)acetamido)ethyl)-3-((3S,5S)-5-(4-(aminomethyl)-4-fluoropiperidine-1-carbonyl)pyrrolidin-3-ylthio)-4-methyl-7-oxo-1-azabicyclo[3.2.0]hept-2-ene-2-carboxylic acid] |
| 4 (≈ 6.85 µM) | 4 (≈ 6.85 µM) | 0.25 (≈ 0.428 µM) | 32 (≈ 54.8 µM) | C[C@@H](NC(=O)Cn1nnnc1C(F)F)[C@H]1C(=O)N2C(C(=O)O)=C(S[C@@H]3CN[C@H](C(=O)N4CC[C@@H](N)C4)C3)[C@H](C)[C@H]12 [Example 349, (4R,5S,6R)-3-((3S,5S)-5-((R)-3-aminopyrrolidine-1-carbonyl)pyrrolidin-3-ylthio)-6-((R)-1-(2-(5-(difluoromethyl)-1H-tetrazol-1-yl)acetamido)ethyl)-4-methyl-7-oxo-1-azabicyclo[3.2.0]hept-2-ene-2-carboxylic acid] |
| 4 (≈ 6.41 µM) | 16 (≈ 25.7 µM) | 1 (≈ 1.6 µM) | > 128 | C[C@@H](NC(=O)Cn1cnnn1)[C@H]1C(=O)N2C(C(=O)O)=C(S[C@@H]3CN[C@H](C(=O)N4CCC5(CC4)CC(F)(F)CN5)C3)[C@H](C)[C@H]12 [Example 351, (4R,5S,6R)-6-((R)-1-(2-(1H-tetrazol-1-yl)acetamido)ethyl)-3-((3S,5S)-5-(3,3-difluoro-1,8-diazaspiro[4.5]decane-8-carbonyl)pyrrolidin-3-ylthio)-4-methyl-7-oxo-1-azabicyclo[3.2.0]hept-2-ene-2-carboxylic acid] |
| 2 (≈ 3.47 µM) | 16 (≈ 27.8 µM) | 0.25 (≈ 0.434 µM) | 16 (≈ 27.8 µM) | C[C@@H](NC(=O)Cn1cnnn1)[C@H]1C(=O)N2C(C(=O)O)=C(S[C@@H]3CN[C@H](C(=O)N4C[C@@H]5NCCO[C@@H]5C4)C3)[C@H](C)[C@H]12 [Example 353, (4R,5S,6R)-6-((R)-1-(2-(1H-tetrazol-1-yl)acetamido)ethyl)-4-methyl-3-((3S,5S)-5-((4aS,7aR)-octahydropyrrolo[3,4-b][1,4]oxazine-6-carbonyl)pyrrolidin-3-ylthio)-7-oxo-1-azabicyclo[3.2.0]hept-2-ene-2-carboxylic acid] |
| 1 (≈ 1.84 µM) | 2 (≈ 3.69 µM) | 0.25 (≈ 0.461 µM) | 128 (≈ 236 µM) | C[C@@H](NC(=O)Cn1nnnc1C(F)F)[C@H]1C(=O)N2C(C(=O)O)=C(S[C@@H]3CN[C@H](C(=O)N(C)C)C3)[C@H](C)[C@H]12 [Example 350, (4R,5S,6R)-6-((R)-1-(2-(5-(difluoromethyl)-1H-tetrazol-1-yl)acetamido)ethyl)-3-((3S,5S)-5-(dimethylcarbamoyl)pyrrolidin-3-ylthio)-4-methyl-7-oxo-1-azabicyclo[3.2.0]hept-2-ene-2-carboxylic acid] |
